# Read-outs that look alike come from different tables or passages of the source.
# How the values were obtained:
# [1] = in vivo; settings: male, Wistar, rat, in vivo, iv
# Procedure: (§1) A saline solution (0.9% NaCl) was added to a mixture of cinnamaldehyde (density = 1.05 g/mL) and Cremophor® RH 40 (1:1 v/v) in order to obtain a 12.5 mg/mL cinnamaldehyde emulsion in the presence of ethanol (10% of final volume). A group (n = 4) of male Wistar rats (200–250 g) fasted for 24 h was anesthetized during the experimental period and received 0.4 mL via a femoral intravenous infusion (rate = 0.2 mL/min; 2 min) of 12.5 mg/mL cinnamaldehyde emulsion (20 mg/kg cinnamaldehyde dose).
# (§2) At the end of the infusions and at fixed time points, CSF samples (50 μL) were withdrawn and blood samples (100 μL) were collected. The CSF was withdrawn using the cisternal puncture method described by van den Berg et al., which requires a single needle stick and allows the collection of serials (40–50 μL) CSF samples that are virtually blood-free. A total volume of about a maximum of 150 μL of CSF/rat (i.e., three 50 μL samples/rat) was collected during the experimental session, choosing the time points (n = 3–5, taking into account a maximum of three collections per rat) in order to allow the restoring of the CSF physiological volume.
# The samples were centrifuged at 12,500× g for 5 min, then about 300 μL of supernatant were withdrawn and further centrifuged. […] As a control, a blood sample (100 μL) was collected by each rat before the administrations of the drugs. The control samples were immediately added to 300 μL of ice-cold CH3CN in the absence of internal standard, then treated as described above.
# For cinnamaldehyde analysis the blood samples were hemolyzed immediately after their collection with 500 μL of ice-cold water, and then 50 μL of 10% sulfosalicylic acid and 50 μL of internal standard (100 μM carbazole dissolved in a water-methanol mixture 50:50 v/v) was added. The samples were extracted twice with 1 mL of water-saturated ethyl acetate, and, after centrifugation at 12,500× g for 10 min, the organic layer was reduced to dryness under a mild nitrogen stream at room temperature. Then, 200 μL of a water-acetonitrile mixture (50:50 v/v) were added, and after centrifugation, 10 μL were analyzed via HPLC (see below) for cinnamaldehyde detection. As a control, a blood sample (100 μL) was collected by each rat before the administration of the drug. The control samples were treated as described above in the absence of internal standard.
# (§3) In particular, all the AUC values referred to the bloodstream were calculated by the trapezoidal method within the last time point detected, and the remaining area was obtained as the ratio between the compound concentration detected at the last time point and the elimination constant (kel), which was obtained from the slope of the semilogarithmic plots (−slope × 2.3). The clearance (Cl) and distribution volume (Vd) values were calculated according to the non-compartmental model as the ratios “dose/AUC” and “Cl/kel”, respectively, where kel is the elimination constant obtained by the slope of semilogarithmic plot.
# (§4) The chromatographic apparatus consisted of a modular system (model LC-10 AD VD pump and model SPD-10A VP variable wavelength UV−vis detector; Shimadzu, Kyoto, Japan) and an injection valve with 20 μL sample loop (model 7725; Rheodyne, IDEX, Torrance, CA, USA). Separations were performed at room temperature on a 5 μm Hypersil BDS C-18 column (150 mm × 4.6 mm i.d.; Alltech Italia Srl, Milan, Italy) equipped with a guard column packed with the same Hypersil material. The volume injection was 10 μL. Data acquisition and processing were performed on a personal computer using CLASS-VP Software, version 7.2.1 (Shimadzu Italia, Milan, Italy).
# The detector was set at 205 nm.
# [2] = rat, in vivo, cited from earlier work
# [3] = in vivo; settings: for Kp at 10 min: R: ratio of concentration between CSF and bloodstream at Tmax
# Procedure: as §1, §2, §4
# For CSF simulation, standard aliquots of balanced solution (Dulbecco’s phosphate buffer saline—DPBS—without calcium and magnesium) in the presence of 0.45 mg/mL BSA were used.
# [4] = in vivo; settings: Wistar, rat; for bioavailability: F: absolute bioavailability
# Procedure: (§5) Each type of formulation was administered to a group of four rats.
# (§6) In particular, 4.2 mL of EU-CD formulation were administered to rats (500 mg/kg dose).
# (§7) In particular, 320 μL of EU-SL formulation were administered to rats (500 mg/kg dose).
# (§8) Free cinnamaldehyde (100 mg) was orally administered by gavage to rats kept fasting since 24 h. In particular, 95 μL of cinnamaldehyde (density = 1.05 g/mL) were dissolved in 905 μL of corn oil and administered to rats (400 mg/kg dose).
# (§9) The solid AC-GN formulation (14% w/w cinnamaldehyde) was mixed with palatable food in order to induce their oral intake by the rats kept fasting since 24 h. In particular, the rats assumed a dose of 100 mg of cinnamaldehyde (400 mg/kg) contained in 714 mg of AC-GN.
# (§10) After the administrations, blood (100 μL) and CSF samples (50 μL) were serially collected at fixed time points from each rat and treated as described above in order to quantify the compounds.
# as §3
# [5] = in vivo; settings: rat, po
# Procedure: as §2, §5, §6, §7, §8, §9, §10
# [6] = tested on: rats; settings: cited from earlier work
# [7] = tested on: PC12 cells; test: Dopamine release from neuronal differentiated PC12 cells (ELISA); assay type: cell-based, rat; settings: 60 mM K^+, 5 min, control stimulus; baseline 393 ± 12 pg/mL
# Procedure: PC12 cell line (RRID:CVCL_0481), derived from rat adrenal gland pheochromocytoma, was a kind gift from Dr Federica Brugnoli from the Department of Translational Medicine, University of Ferrara, Ferrara (Italy). The cells were grown in RPMI-1640 (HiGlutaXL) medium (Microtech, Naples, Italy), supplemented with 100 µg/mL streptomycin and 100 IU/mL penicillin, 10% horse serum (HS), and 5% fetal bovine serum (FBS). PC12 cells were gently removed from the 4 µg/cm^2 collagen IV-coated flask with a rubber scraper, transferred as cell suspension into a Falcon tube and resuspended through a sterile tip to avoid any clumping, then split into separate flasks twice weekly. To differentiate neuronal phenotypes, PC12 cells were seeded in 4 µg/cm^2 collagen IV-coated 12-well plates at a density of 5000 cells/well, and they were then left to adhere to the well for 24 h. […] All the proliferative and differentiated cultures were maintained at 37 °C in a humidified 5% CO2 atmosphere.
# PC12 cells differentiated to neuronal-like phenotype in collagen IV-treated 12-well plates, were first synchronized all to the same circadian phase and cell cycle by a serum shock (50% HS and 50% DMEM HiGlutaXL) for 2 h at 37 °C [49] to achieve a synchronous release of dopamine. Synchronization medium was then aspirated off, cells were washed with 3 × 1 mL and equilibrated for 15 min at 37 °C in 1 mL of Krebs Ringer HEPES (KRH) physiological buffer, following the recipe of Mount et al. (25 mM HEPES/Tris, pH 7.4, 1.2 mM KH2PO4, 125 mM NaCl, 4.8 mM KCl, 1.2 mM MgSO4, 2.2 mM CaCl2, 5.6 mM glucose, 1.0 mM ascorbic acid, 10 µM pargyline, 1.0 µM nomifensine). […] To remove cell debris, all samples of 1 mL incubation KRH at the end of treatments were centrifuged at 1000× g for 20 min at 4 °C and stored at −20 °C until dopamine levels were determined by ELISA assay.
# Dopamine levels in 1 mL incubation KRH buffer were detected by means of an ELISA assay, based on the […] ELISA principle for detection of dopamine, following manufacturer’s instructions (IBL International, Hamburg, Germany–catalog no: RE59161; purchased from Tecan Italia S.r.I, Milan, Italy). After the substrate reaction, the intensity of the developed color was proportional to the amount of dopamine, detected at 450 nm using a microplate reader spectrophotometer (Sunrise® Microplate Reader, Tecan Trading AG, Männedorf, Switzerland). Results of samples were determined directly using the standard curve. Results are presented as mean ± SE values of four independent experiments. Data were plotted and analyzed with GraphPad software (Prism, version 7.0, San Diego, CA, USA).
# [8] = tested on: PC12 cells; settings: cited from earlier work
# [9] = male, Wistar, rat, in vivo, iv, 20 mg/kg
smiles,measurement,setting,value
"O=C/C=C/c1ccccc1 [Cinnamaldehyde, cinnamaldehyde]",Vd,[1],1.32 ± 0.19 L/kg
same,clearance,[1],39.5 ± 1.7 mL/min/kg
same,half-life,[1],23.1 ± 1.6 min
same,C0,"[2]; iv, 20 mg/kg",about 0.5 μg/mL
same,C0,"[2]; iv, 25 mg/kg",about 20 mg/mL
same,F (oral bioavailability),[2]; po,less than 20%
same,AUC,"[3]; male, Wistar, rat, in vivo, iv",1610 ng·h/mL
same,AUC,[3]; [9],1610 ng·h/mL
same,Cmax,[3]; [9],2040 ± 360 ng/mL
same,Kp at 10 min,"[3]; male, Wistar, rat, in vivo, iv, rat, iv, 10 min from the end of infusion",0.156 ± 0.038
same,time within which CSF concentrations decreased to zero or near to zero,"[3]; rat CSF, iv 20 mg/kg",≤ 75 min
same,R: ratio of concentration between CSF and bloodstream at Tmax,"[3]; rat, iv, 10 min from the end of infusion",0.16 ± 0.04
same,Tmax: time of Cmax in the bloodstream,[4],40 min
same,F: absolute bioavailability,[4]; po,7.33 ± 0.37%
same,RB: relative bioavailability,[4]; po,100%
same,bioavailability,[4]; po,7%
same,AUC in CSF to last time of detection,[5],0 µg·min/mL
same,Tmax: time of Cmax in CSF,[5],0 h
same,oral LD50,[6]; oral,about 3 g/kg
same,intravenous dose known to induce toxicity,"[6]; rats, iv",25 mg/kg
same,intravenous dose that appears lethal,"[6]; rats, iv",30 mg/kg
"C=C(C)[C@H]1CC=C(C)CC1 [D-Limonene, D-limonene]",Cl: clearance,[1],284 ± 10 mL·min/kg
same,Vd,[1],5.52 ± 0.558 L/kg
same,half-life,[1],12.4 ± 0.9 min
same,clearance,[1]; Cl: clearance,284 ± 10.4 mL/min/kg
same,C0,"[2]; iv, 200 mg/kg",higher than 80 μg/mL
same,terminal t1/2,"[2]; iv, 200 mg/kg",280 min
same,Cmax,"[2]; po, 75 mg/kg",~300 ng/mL
same,Cmax,"[2]; po, 200 mg/kg",about 11 μg/mL
same,detection in the CSF of rats after intravenous administration,"[3]; iv 100 mg/kg, within 90 min after the end of infusion",not detected
same,AUC in CSF from the end of infusion to last time of detection,"[3]; male, Wistar, rat, in vivo, iv",0 µg·min/mL
same,Kp at 10 min,"[3]; male, Wistar, rat, in vivo, iv",0
same,Tmax: time of Cmax in the bloodstream,[4],30 min
same,F: absolute bioavailability,[4]; po,7.04 ± 0.96%
same,bioavailability,[4]; po,7%
same,AUC in CSF to last time of detection,[5],0 µg·min/mL
same,Tmax: time of Cmax in CSF,[5],0 h
"[Cl-].[K+] [K^+, reference compound]",dopamine release,[7],4340 ± 265 pg/mL
Oc1ccc(/C=C/c2cc(O)cc(O)c2)cc1 [resveratrol],most effective concentration in increasing the viability of PC12 cells,[8],25 µM

# Source: paper PMC9862186 (International Journal of Molecular Sciences, 2023)
